Measurements: US20100278837A1, “Compositions And Methods For Reducing Cancer And Inflammation” (The Regents of the University of California, priority 2009, published 2010)

Legend:
LLC tumours = assay: Subcutaneous LLC tumour growth, inflammation and angiogenesis in treated mice; type: in vivo, C57BL/6 mice; conditions: daily dosing
Experimental: LLC cells were obtained from the American Type Culture Collection (ATCC) and Panc02 pancreatic ductal carcinoma cells were obtained from the NCI DCTDC Tumour Repository. The abdominal cavities of immunocompetent C57Bl6 mice and integrin α4Y991A knockin mice^30 were opened and the tails of the pancreas were exteriorized. One million Panc02 cells were injected into the pancreatic tail, the pancreas was placed back into the abdominal cavity and the incision was closed. Tumours were excised after 30 days. 5×10^5 LLC cells were injected subcutaneously or by intravenous tail vein injection into C57Bl6 or integrin α4Y991A mice. Tumours were excised at 7, 14 or 21 days, cryopreserved in O.C.T., lysed for RNA purification or collagenase-digested for flow cytometric analysis of CD11b and Gr1 expression. […] Tumours were harvested, weighed and further analyzed on day 8. […]
PI3-kinase γ inhibitor studies: C57BL/6 mice were subcutaneously implanted on d1 with 5×10^5 LLC or by intradermal injection with 5×10^5 B16 melanoma cells. […] Tumour volumes, weights and blood vessel densities, as well as myeloid cell densities were measured. […] Tumours were excised, weighed and analyzed after 3 weeks. […] Mice were sacrificed at 9 weeks of age and tumours were analyzed.

CD11b+ myeloid cells = assay: Adoptive transfer: arrest of pretreated CD11b+ myeloid cells in LLC tumours; type: in vivo; conditions: adoptively transferred into LLC tumour-bearing mice
Experimental: Alternatively, 5×10^6 CFSE labelled CD11b+ cells from C57BL/6, α4Y991A, and PI3-kinase γ−/− mice were injected intravenously into mice bearing subcutaneous (5×10^5) d14 LLC tumours. In other studies, CD11b+ cells from WT mice were treated for 1 h with 1 μM PI3-kinase α inhibitor (PI3K75), PI3-kinase β inhibitor (TGX221), PI3-kinase γ inhibitor (TG100-115) and an inert control or with 10 μM PLC inhibitor (U73122), geranylgeranyltransferase inhibitor (GGT2147) or farnesyltransferase inhibitor (FTI-277) and then injected intravenously into mice bearing subcutaneous (5×10^5) d14 LLC tumours.
In other studies, K, N and H Ras, Rap1, PI3Kα, PI3Kβ, PI3Kγ, PI3Kδ, integrin α4 and integrin αM were knocked down by siRNA transfection of CD11b+ cells as described above. 48 h later, cells were labeled with CFSE and injected into mice with d14 LLC tumours (1×10^6 cells). Fluorescent cells accumulating in tumours and spleens were quantified 2 h and 24 h later by excising tissues, preparing single cell suspensions and performing FACs analysis at 488 nm. No differences were observed between untreated and non-silencing siRNA treated cells.

[1] = tested on: CD11b+ myeloid cell adhesion to VCAM-1; assay: Chemoattractant-stimulated CD11b+ myeloid cell adhesion to VCAM-1 / endothelial cells (Example 9 adhesion assay); type: cell-based, mouse
Experimental: 1×10^5 calcein-AM labelled human CD11b+ cells isolated from buffy coats from the San Diego Blood Bank or murine CD11b+ cells isolated from naïve (non-tumour bearing) or tumour-bearing mice were incubated on HUVEC monolayers or on plastic plates coated with 5 μg/ml recombinant soluble VCAM-1 or ICAM-1 (R&D Systems) for 30 minutes at 37° C. with humidity in the presence of LLC Tumour Conditioned Medium (TCM) or DMEM containing 200 ng/ml SDF1α, IL1β, IL6, TNFα or VEGF-A (R&D Systems). (SDF-1α and IL-1β were initially titrated to determine the minimum dose required to achieve near maximal stimulation of adhesion). TCM was prepared by incubating LLC cells in serum-free media for 18 h and filtering through 0.22 μm filters. After washing three times with warmed medium, adherent cells were quantified using a plate fluorimeter (GeniosPro, TECAN).
In some adhesion assays, cells were also incubated in 25 μg/ml function-blocking anti-integrin α4β1 (rat anti-murine, PS2 or mouse anti-human, HP2/1, gifts from Biogen-Idec), rat-anti-αM (anti-CD11b, M1/70) and isotype control antibodies (rat IgG2κ or mouse IgG1) or with 0.1 nM-10 μM doses of the small molecule inhibitor of integrin α4, ELN476063 (IC50=10 nM), a gift from Elan^14.
Additionally, labelled cells were incubated with HUVEC and rsVCAM coated plates in the presence of […] or SDF-1α and 1-10 μM inhibitors: pan-PI3 kinase inhibitors ([…], wortmannin), PI3-kinase α inhibitors (PI3K75, PIK2alpha, PI103), PI3-kinase β inhibitor (TGX221), PI3-kinase γ inhibitors (TG100-115, AS605240, AS604850), inert control, PLC inhibitor (U73122), geranylgeranyltransferase (Rap1-selective) inhibitors (GGTI-2147 and GGTI-298) or farnesyltransferase (Ras-selective) inhibitor (FTI-277), Akt inhibitors (Inhibitor X and peptide 18), mTOR inhibitor (rapamycin), ROCK inhibitor (Y27632), MEK inhibitor (PD98059), p38 inhibitor (SB202190), tyrosine kinase inhibitor (genestein) and PKA inhibitors (H89, KT5720). LY294002, wortmannin, genestein, U73122, GGTI-2147, GGTI-298, FTI-277, Y27632, PD98059, SB202190, H89 and KT5720 were from Calbiochem. PIK2alpha, PI103, AS605240, AS604850 and TGX221 were from Echelon. TG100-115 was prepared as described^25-26. To titrate the effect of various signalling protein inhibitors on myeloid cell adhesion stimulated by IL-1β or SDF-1α, cells were incubated in 1 nm to 100 μM PI3-kinase inhibitors TG00020 (a pan-PI3-kinase inhibitor), PI3-kinase α inhibitor (PI3Kalpha2) PI3-kinase β inhibitor (TGX221), PI3-kinase γ inhibitors (TG100-115, AS605240), an inert chemically matched control, farnesyltrasnferase inhibitors and geranylgeranyltransferase inhibitors. IC50s for GGTI and FTI were 1 μM. […] Adherent GFP+ cells were automatically quantified using MetaMorph software (Molecular Devices Software).

IC50 ([1]; stimulated by IL-1β or SDF-1α, read-out: IC50, myeloid cell adhesion) [µM]	SMILES	LLC tumour growth (LLC tumours)	myeloid cell arrest in tumours in vivo (CD11b+ myeloid cells)	adhesion, ligand binding and integrin conformational changes ([1]; chemokine-stimulated myeloid cells)
	O=C1NC(=O)/C(=C\c2ccc3nccnc3c2)S1 [AS605240]	suppressed tumour growth at similar doses		
1	COC(=O)[C@H](CCSC)NC(=O)c1ccc(NC[C@@H](N)CS)cc1-c1ccccc1 [FTI]		suppressed myeloid cell arrest in tumours in vivo	blocked adhesion, ligand binding and integrin conformational changes
